Results published in article PMC3684613 (PLoS ONE, 2013).
Where two headings read alike, the source gives them in different places.

Key:
[1] = test system: P. falciparum 3D7; assay: DAPI stain fluorescent high content imaging assay, P. falciparum 3D7 (confirmatory screen, Avery); details: Plasmodium falciparum; for EC50: 3D7, read-out: EC50_nM; for inhibition of growth at 5 µM: 3D7, read-out: percent_inh @ 5 uM; for inhibition of growth at 2 µM: 3D7, read-out: percent_inh @ 2 uM
[2] = test system: P. falciparum 3D7; set-up: method as in ChEMBL-NTD; details: ref ChEMBL-NTD, cited from earlier work
[3] = values follow the order of the source (GNF; GSK; StJude)

EC50 [1] [µM]	SMILES	inhibition of growth at 5 µM [1] [%]	also measured
0.205	CCOC(=O)c1cn(CC)c2cc(N(C)CCc3ccc(OC)c(OC)c3)c(F)cc2c1=O [MMV665977]	99	EC50 ([2]; source GNF (GNF-Pf id)): 0.103 µM; EC50 ([2]; source GSK (TCMDC id)): 0.425 µM
0.466	OC(CNC1CCCCC1)Cn1c2ccc(I)cc2c2cc(I)ccc21 (stereo not drawn) [MMV665882]	97	EC50 [2, 3]: 0.337 µM
1.19	COCCN(C(=O)Cc1cccs1)C(C(=O)NCc1ccc(OC)cc1)c1ccc(C(C)C)cc1 (stereo not drawn) [MMV666105]	92	EC50 ([2]; source GSK): 0.845 µM
0.603	CC(NCc1ccccc1)c1cc(Cl)ccc1O (stereo not drawn) [MMV665789]	95	EC50 ([2]; source GNF): 0.592 µM
1.07	c1ccc(-c2ccc(-c3nc4ccccc4[nH]3)cc2)cc1 [MMV665891]	52	EC50 ([2]; source GSK): 0.809 µM
0.89	O=C1C2=C(Nc3ccccc3SC2c2ccccc2)c2ccccc21 (stereo not drawn) [MMV645672]		
1.16	N#Cc1nc(Cc2cccc3ccccc23)oc1N1CCN(C(c2ccccc2)c2ccccc2)CC1 [MMV396726]		
1.15	COc1cccc(C2(C)Nc3ccccc3-c3nc4ccccc4n32)c1 (stereo not drawn) [MMV396719]		
0.928	COc1ccc2c(c1)C1(Nc3ccccc3-c3nc4ccccc4n31)C(=O)N2 (stereo not drawn) [MMV396749]		
0.551	COc1ccc(C=C2SC(Nc3ccccc3)=NC2=O)cc1 [MMV665836]	71	
1.73	CC1(c2ccccc2)Nc2ccccc2-c2nc3ccccc3n21 (stereo not drawn) [MMV396715]		
1.33	O=C(NNc1cc(N2CCCC2)nc(N2CCCC2)n1)c1ccccc1 [MMV396770]		
0.385	Nc1ccn([C@@H]2O[C@H](CO)[C@@H](O)[C@H]2O)c(=O)n1 [MMV638723]		
1.79	COc1ccc(C2c3ccc4ccccc4c3Oc3ncn(CCCn4ccnc4)c(=N)c32)cc1OC (stereo not drawn) [MMV667490]		
0.916	COc1ccc(CCN2C(=O)c3[nH]nc(-c4cc(Cl)c(C)cc4O)c3C2c2ccccc2F)cc1 (stereo not drawn) [MMV396717]		
1.01	O=C(Nc1cccc(C2=NCCN2)c1)Nc1cccc(C2=NCCN2)c1 [MMV665810]	83	
0.939	COC(=O)c1ccc(Cl)c2c1C1C=CCC1C(c1cccc3ccccc13)N2 (stereo not drawn) [MMV667489]		
1.06	OC(CNCC1CCCO1)Cn1c2ccc(Cl)cc2c2cc(Cl)ccc21 (stereo not drawn) [MMV396736]		
1.23	COc1ccc(C2c3ccc4ccccc4c3Oc3ncn(CCCN(C)C)c(=N)c32)cc1 (stereo not drawn) [MMV667491]		
0.477	COc1ccc(-c2c(C)nn3c(N)c(C#N)cnc23)cc1OC [MMV396797]		
0.832	CC(C)CNC(=O)c1c(N)n(CCc2ccccc2F)c2nc3ccccc3nc12 [MMV396744]		
1.16	CC(C)(C)CC(C)(C)NCC(O)COc1ccc(Cl)cc1Cl (stereo not drawn) [MMV396794]		
0.929	Cc1cccc(-n2ncc3c(=O)[nH]c(-n4nc(C)cc4NC(=O)c4cc5ccccc5o4)nc32)c1 [MMV403679]		
1.01	Oc1c(C(Nc2ccccn2)c2cccc(Oc3ccccc3)c2)ccc2cccnc12 (stereo not drawn) [MMV665814]	97	
1.24	N=c1n(CCN2CCCCC2)c2ccccc2n1CC(=O)c1ccc(Cl)c(Cl)c1 [MMV396723]		

Second part, the compound before the results:

SMILES	EC50 [1] [µM]	inhibition of growth at 5 µM [1] [%]	also measured
CCCCCCc1cc(O)c2c3c(c(=O)oc2c1)CCC(C)C3 (stereo not drawn) [MMV665987]	0.534	96	EC50 ([2]; source GNF (GNF-Pf ids)): 0.364 µM
CC(O)(c1ccc(Cl)cc1)C(CN1CCCCC1)c1ccccc1 (stereo not drawn) [MMV000620]		94	EC50 ([2]; source StJude): 0.916 µM
COc1cc(-c2nc(-c3ccccc3)c(-c3ccccc3)[nH]2)cc(OC)c1O [MMV020750]	1.18	97	EC50 [2, 3]: 0.774 µM
c1ccc2c(NCCc3c[nH]c4ccccc34)c3ccccc3nc2c1 [MMV006513]	0.304	97	EC50 ([2]; source GNF (GNF-Pf ids)): 0.086 µM
COc1cc(C(=O)Nc2nc3c(cc4c5c(cccc53)CC4)s2)cc(OC)c1OC [MMV396665]	0.898		
CCN(CC)CCn1c(=N)n(CC(O)c2ccc(Cl)c(Cl)c2)c2ccccc21 (stereo not drawn) [MMV000248]	0.719	97	
COc1ccc(-c2nc3cc(Cc4ccc5[nH]c(-c6ccc(OC)cc6)nc5c4)ccc3[nH]2)cc1 [MMV007384]	0.176	98	EC50 ([2]; source GNF (GNF-Pf id)): 0.234 µM
COc1ccc2c(c1OC)C(=O)N1c3ccccc3N=C(c3ccc(C)cc3)CC21 (stereo not drawn) [MMV000917]	1.24	93	EC50 ([2]; source StJude (SJ ids)): 2.53 µM
O=C(Nc1ccccc1O)c1ccc(-c2ccc(Cl)cc2Cl)o1 [MMV665948]		97	EC50 ([2]; source StJude): 2.46 µM
CCCCCCC(O)(c1ccc(F)cc1)C(CN1CCOCC1)c1ccccc1 (stereo not drawn) [MMV000621]		93	EC50 ([2]; source StJude (SJ ids)): 3.18 µM
CCCCOc1ccc(C(=O)Nc2cc(C)on2)cc1 [MMV007906]		73	EC50 ([2]; original screening data, source (GSK, GNF, StJude), several values separated by ';' in order of sources): 3.16 µM
CCOc1ccc(C2N(C)c3ccccc3N2C)cc1 [MMV075490]	0.941	72	
Oc1ccc(-c2nc(-c3ccc4oc5ccc(-c6[nH]c(-c7ccc(O)cc7)nc6-c6ccccc6)cc5c4c3)c(-c3ccccc3)[nH]2)cc1 [MMV000753]	0.326	98	
CN1CCN(c2nc(Nc3ccc(O)cc3)nc3ccccc23)CC1 [MMV000986]	1.43		
COc1ccc2nc(C)cc(Nc3ccc(Cl)cc3)c2c1 [MMV007875]	2		inhibition of growth at 2 µM [1]: 95%
Cc1cc(NC(=O)c2cccc(C(F)(F)F)c2)n(-c2nc(-c3ccc4c(c3)OCO4)cs2)n1 [MMV396681]	0.959		
Cc1cc(N2CCCC2)nc(Nc2ccc(NC(=O)CCc3ccccc3)cc2)n1 [MMV396669]	1.07		
Oc1ccccc1CN1CCN(C(c2ccccc2)c2ccccc2)CC1 [MMV011795]	0.611	97	
COc1ccc(Nc2nc(NCc3ccccc3)c3ccccc3n2)cc1 [MMV000963]	0.589		
Brc1ccc(Nc2nc3ccccc3nc2Nc2ccc(Br)cc2)cc1 [MMV007224]	1.06	98	
CN1CCN(c2ncnc3c2[nH]c2ccc(Cl)cc23)CC1 [MMV396704]	1.19		
O=C(NCC(c1ccsc1)N1CCCCCC1)c1ccc(C(F)(F)F)cc1 (stereo not drawn) [MMV396672]	0.433		
O=C(CSc1nccn2nc(-c3ccccc3)cc12)Nc1cc(C(F)(F)F)ccc1Cl [MMV396678]	0.218		
Nc1nc(Nc2cccc(F)c2)nc2ccccc12 [MMV080034]	1		
Cc1sc(NC(=O)c2ccco2)c(C(c2cccnc2)N2CCC(Cc3ccccc3)CC2)c1C (stereo not drawn) [MMV396663]	1.02		

SMILES	EC50 [1] [µM]	inhibition of growth at 5 µM [1] [%]	also measured
CCN(CC)CCNc1ncnc2c1[nH]c1ccc(Cl)cc12 [MMV396703]	0.406		
O=c1nc(C=Cc2ccc(Cl)cc2)oc2ccccc12 [MMV007977]	0.995	76	
O=C(NC1CCN(Cc2ccccc2)CC1)c1cc2nc(-c3ccc(Cl)s3)cc(C(F)(F)F)n2n1 [MMV396635]	0.959		
CCOc1ccccc1CN1CCc2nc3cc(C(C)(C)C)nn3c(O)c2C1 [MMV396595]	1.01		
COc1ccc2nc(C)cc(Nc3ccccc3O)c2c1 [MMV274073]	0.686		
COc1ccc(C=C2SC(Nc3ccc(F)cc3)=NC2=O)c(OC)c1 [MMV084434]	0.591	92	
CCOc1cc(CNC(C)C(O)c2ccccc2)cc(Cl)c1OCC (stereo not drawn) [MMV396633]	1.24		
CN(N=O)C1=C(NC2CCCCC2)C(=O)c2ccccc2C1=O [MMV667492]	1.19		
COc1cccc(Cn2c(Oc3ccccc3)nc3c2c(=O)n(C)c(=O)n3C)c1 [MMV396705]	1.39		
CCOc1ccc(N2C(N)=NC(N)=NC2(C)C)cc1 [MMV667486]			inhibition of growth at 2 µM [1]: 92%
CCn1nc(-c2ccc(C(=O)OC)cc2)nc2c(=O)n(C)c(=O)nc1-2 [MMV306025]	0.693		
Cc1ccc(-c2cc3c(SCC(=O)Nc4cc(C(F)(F)F)ccc4Cl)nccn3n2)cc1 [MMV396680]	0.0928		
COc1ccc(-c2nc(N3CCN(C(=O)C4CCCCC4)CC3)c3c4c(sc3n2)CCCC4)cc1 [MMV396594]	1.06		
CCOc1cc2c(cc1OCC)C(c1cc(Cl)ccc1O)NCC2 (stereo not drawn) [MMV000478]	0.746	98	
CCOc1c(Cl)cc(CNCC(O)c2ccccc2)cc1OC (stereo not drawn) [MMV396632]	1.05		
C[n+]1c2ccccc2nc2ccc(NCCO)cc21 [MMV396693]	0.296		
CN(C)c1ccc(N2C(N)=NC(N)=NC2(C)C)cc1 [MMV667487]			inhibition of growth at 2 µM [1]: 95%
Cc1cc(C)cc(Nc2cc(C)nc3nc(C(F)(F)F)nn23)c1 [MMV011259]	0.0857		
CCOC(=O)c1c(C)n(-c2ccccc2)c2ccc(OC(=O)c3cc(OC)c(OC)c(OC)c3)cc12 [MMV396664]	0.615		
COc1ccc(-c2cc3c(SCC(=O)Nc4cc(C(F)(F)F)ccc4Cl)nccn3n2)cc1 [MMV396679]	0.0899		
Cc1ccc(Nc2nc(N)c3ccccc3n2)cc1Cl [MMV011522]	4		inhibition of growth at 2 µM [1]: 96%
COc1ccccc1N1C(=N)SC(=Cc2ccc(OCc3ccccc3F)cc2)C1=O [MMV007199]	0.478	95	
CCOC(=O)c1cnc2ccc(OC)cc2c1Nc1ccc(N2CCN(C)CC2)cc1 [MMV000704]	1.1		
COc1cc2cc(C(=O)Nc3ccccc3)c(N)nc2cc1OC [MMV006767]		99	
Cc1sc(NC(=O)c2ccccc2)c(C(c2cccs2)N2CCN(c3ccccc3)CC2)c1C (stereo not drawn) [MMV396652]	1.18		
